How the values were obtained:
[1] = Light-colored SBR-vulcanisate (Example 23): ΔL-color after 3 weeks in diffuse daylight; conditions: 2.0 phr stabilizer; 3 weeks at room temperature in diffuse daylight; scale 0 to 100, 100 = no discoloration; without stabilizer 97
Experimental: (§1) 100 parts by weight of Cariflex®S-1502 (styrene/butadiene rubber, Shell) are processed at 60° C., in a mixing mill, with 30.0 parts by weight of Kronos®CL 220 [titanium dioxide (pigment), Kronos Titan GmbH], 30.0 parts by weight of Aktisil®MM [kaolin (filler), Hoffmann Mineral, Neuburg/Donau], 5.0 parts by weight of Naftolen®N 401 [plasticiser, Metallgesellschaft], 10.0 parts by weight of zinc oxide [vulcanization activator], 2.0 parts by weight of stearic acid [vulcanization activator], 2.0 parts by weight of sulfur [vulcanizing agent], 1.0 part by weight of Vulkacit®MOZ [vulcanization accelerator, Bayer], 0.25 part by weight of Vulkacit®Thiuram [vulcanization accelerator, […], to form a homogeneous mixture, the vulcanization system (sulfur, Vulkacit®MOZ and Vulkacit®Thiuram) not being added until the end of the mixing process. The mixture is vulcanized in electrical vulcanization presses at 150° C. until T95 is reached in the rheometer curves to form elastomer plates 2 mm thick, 21 cm long and 8.0 cm wide.
(§2) The remaining elastomer plates are stored for 3 weeks at room temperature in a standard laboratory atmosphere in diffuse daylight. The ΔL-color of those plates is then determined according to DIN 6167, which corresponds to a scale of from 0 to 100. No discoloration is indicated by a value of 100.

[2] = Prevention of migration of the oxidized developer in a color photographic material (three layer test elements, interlayer scavenger); conditions: 20 mg.m^−2 scavenger in interlayer; AGFA P-94 developing process; control without scavenger 0.293
Experimental: To evaluate compounds of this invention with respect to their ability as interlayer scavengers for oxidized developing agent, three layer photographic test elements are prepared by providing layers in the order indicated on a polyethylene-coated paper support:
(2) An interlayer containing:
The test elements are imagewise exposed through a step wedge with density increment 0.15 and thereafter subjected to the AGFA P-94 developing process.
Upon processing of the test elements, some oxidized developer is prone to migrate from the layer in which it is formed, for example the undermost, magenta-dye-providing layer, to the topmost layer containing the cyan-dye-forming coupler, thereby producing unwanted cyan dye. The amount of cyan dye that is generated depends on the ability of the interlayer to prevent the diffusion of oxidized developer.

[3] = Stabilization of polycarbonate (oven ageing at 135° C., yellowness index and transmission); conditions: 0.01% stabilizer
Experimental: This mixture is then extruded in a Schwabenthan extruder at a maximum of 280° C. The polymer string is then granulated. Using an injection moulding machine, plates having a layer thickness of 2 mm are then moulded from the granulate so obtained at a maximum of 300° C. […] Low YI values denote little discoloration, high YI values high discoloration of the patterns. […] The results are compiled in Tables 17 and 18.

[4] = Light-colored SBR-vulcanisate, ozone atmosphere for 96 hours: crack formation; design: key: grade 0: Grade 0 denotes no cracks; grade 1 denotes narrow flat cracks; grade 2 denotes moderately broad, moderately deep cracks, clearly visible; grade 3 denotes broad and deep cracks; conditions: 2.0 phr stabilizer, ozone 50 pphm, 40° C., dynamic elongation, without stabilizer grade 2
Experimental: as §1
Some of the elastomer plates so obtained are tested for the action of ozone according to the ASTM standard D 3395-86 while subject to dynamic elongation. In this test the plates are first stored for 30 days in a standard atmosphere [23/50 SN-ISO 291]. Test specimens measuring 20 cm by 1 cm are then punched out and exposed to an ozone atmosphere for 96 hours (ozone content: 50 pphm; temperature: 40° C.; humidity: 50% rel.; elongation: 0 to 25%; elongation rate: 0.5 Hz; number of load cycles: approximately 173 000). The test plates are then assessed for crack formation according to ASTM D 3395-86. Grade 0 denotes no cracks; grade 1 denotes narrow flat cracks; grade 2 denotes moderately broad, moderately deep cracks, clearly visible; grade 3 denotes broad and deep cracks. The lower the grade number, the better the stabilization of the elastomer plates.

[5] = Stabilization of multiple-extruded polypropylene at high temperature; design: unit not given here; conditions: stabilizer 0.015% by weight, measured at 230° C./2.16 kg
Experimental: This blend is then extruded in an extruder having a cylinder diameter of 20 mm and a length of 400 mm at 100 rpm, the 3 heating zones being adjusted to the following temperatures: 280, 320, 340° C. The extrudate is cooled by drawing it through a water bath and is then granulated. This granulate is repeatedly extruded. […] A substantial increase in the melt index denotes pronounced chain degradation, i.e. poor stabilization.

[6] = Stabilization of multiple-extruded polypropylene; conditions: 0.05% of compound; heating zones 260, 270, 280° C.; measured at 230° C./2.16 kg; without compound 17.5
Experimental: 1.3 kg of polypropylene powder (Profax 6501), which has been prestabilized with 0.025% of Irganox®1076 (n-octadecyl 3-[3,5-di-tert-butyl-4-hydroxyphenyl]propionate) (melt index 3.2 g/10 min, measured at 230° C./2.16 kg) are blended with 0.05% of Irganox®1010 (pentaerythritol tetrakis[3-(3,5-di-tert-butyl-4-hydroxyphenyl)propionate]), 0.05% of calcium stearate, 0.03% of DHT 4A® (Kyowa Chemical Industry Co., Ltd., [Mg4.5Al2(OH)13CO3.3.5H2O]) and 0.05% of compound of Table 4. This blend is then extruded in an extruder having a cylinder diameter of 20 mm and a length of 400 mm at 100 rpm, the 3 heating zones being adjusted to the following temperatures: 260, 270, 280° C. The extrudate is cooled by drawing it through a water bath and is then granulated. This granulate is repeatedly extruded. After 3 extrusions, the melt index is measured (at 230° C./2.16 kg). A substantial increase in the melt index denotes pronounced chain degradation, i.e. poor stabilization.

[7] = Stabilization of polyethylene during processing (Brabender plastograph); conditions: 0.05 part compound and 0.05 part Irganox 1010 per 100 parts polyethylene; 220° C., 50 rpm; without compound 9.7
Experimental: 100 parts of polyethylene powder (Lupolen®5260 Z) are blended with 0.05 part of Irganox®1010 (pentaerythritol tetrakis[3-(3,5-di-tert-butyl-4-hydroxyphenyl)propionate]) and 0.05 part of a compound of Table 5 and the blend is kneaded in a Brabender plastograph at 220° C. and 50 rpm. During this time the kneading resistance is recorded continuously as torque. In the course of the kneading time the polymer begins to crosslink after prolonged constancy, as can be determined by the rapid increase in torque. The time taken until a marked increase in torque is shown in Table 5 as a measure of the stabilizing action. The longer this time is the better the stabilizing action.

[8] = Light-colored SBR-vulcanisate (Example 22): ΔL-color after 3 weeks in diffuse daylight; conditions: 1.0 phr stabilizer; 3 weeks at room temperature in diffuse daylight; scale 0 to 100, 100 = no discoloration; without stabilizer 94
Experimental: (§3) 100 parts by weight of Cariflex®S-1502 (styrene/butadiene rubber, Shell) are processed at 60° C., in a mixing mill, with 30.0 parts by weight of Kronos®CL 220 [titanium dioxide (pigment), Kronos Titan GmbH], 30.0 parts by weight of Aktisil®MM [kaolin (filler), Hoffmann Mineral, Neuburg/Donau], 5.0 parts by weight of Naftolen®N 401 [plasticizer, Metallgesellschaft], 10.0 parts by weight of zinc oxide [vulcanization activator], 2.0 parts by weight of stearic acid [vulcanization activator], 2.0 parts by weight of sulfur [vulcanizing agent], 1.0 part by weight of Vulkacit®MOZ [vulcanisation accelerator, Bayer], 0.25 part by weight of Vulkacit®Thiuram [vulcanization accelerator, Bayer] and 1.0 part by weight of the stabilizer to be tested according to Table 24, to form a homogeneous mixture, the vulcanization system (sulfur, Vulkacit®MOZ and Vulkacit®Thiuram) not being added until the end of the mixing process. The mixture is vulcanized in electrical vulcanization presses at 150° C. until T95 is reached in the rheometer curves to form elastomer plates 2 mm thick, 21 cm long and 8.0 cm wide.
as §2

[9] = Light-colored SBR-vulcanisate, ozone atmosphere for 48 hours: crack formation; design: key: grade 0: Grade 0 denotes no cracks; grade 1 denotes narrow flat cracks; grade 2 denotes moderately broad, moderately deep cracks, clearly visible; grade 3 denotes broad and deep cracks; conditions: 1.0 phr stabilizer, ozone 50 pphm, 40° C., dynamic elongation, without stabilizer grade 1-2
Experimental: as §3
Some of the elastomer plates so obtained are tested for the action of ozone according to the ASTM standard D 3395-86 while subject to dynamic elongation. […] The test plates are then assessed for crack formation according to ASTM D 3395-86. […]

[10] = Discoloration of powder coatings based on a carboxy-functional polyester cured in electric and gas ovens; conditions: total 0.60% stabilizers rel. to components 1 to 5
Experimental: To prepare the powder coating composition based on a carboxy-functional polyester, components 1 to 6 (formulation without additives) or components 1 to 7 (formulation containing the stabilizers) are employed in the sequence indicated (cf. Table 13).
The components weighed out in this way are mixed using a planetary stirrer. The mixture is then extruded on a prism extruder at 300 revolutions/minute and at 100° C. and is rolled out. The powder coating composition is coarsely comminuted using a bench cutter and is ground in a Retsch ZM-1 ultracentrifugal mill with a 0.75 mm annular-perforation screen at 15,000 revolutions/minute. Finally, the powder is passed through a 30 μm screen on a centrifugal screening machine.
The finished powder coating composition is sprayed electrostatically to a coat thickness of 70 μm onto aluminium panels using an ESB-Wagner corona cup gun at 60 kV. Some of the coated panels are cured at 180° C. for 90 minutes in an electric oven. The remaining coated panels are cured at 180° C. for 45 minutes in a gas oven with an NO2 content of 20 ppm. The yellowness index (YI) of the samples is determined in accordance with ASTM D 1925-70. Low YI values denote little discoloration, high YI values denote severe discoloration of the samples.

Compound | ΔL-color according to DIN 6167 [1] | melting point | Cyan density at a magenta density of 1.5 [2] | Yellowness index prior to oven-ageing ([3]; 2 mm plates, ASTM D 1925-70) | Transmission in % prior to oven-aging ([3]; at 450 nm) | Transmission in % after 2000 hours at 135° C. ([3]; at 450 nm, without stabilizer 76.4) | Yellowness index after 2000 hours at 135° C. ([3]; circulating air oven, without stabilizer 25.0) | Crack formation according to ASTM D 3395-86 [4] | Melt index after 5 extrusions ([5]; 280° C.) | Melt index after 5 extrusions ([5]; 320° C.) | Melt index after 5 extrusions ([5]; 340° C.) | Melt index after 3 extrusions [6] | Time until increase in torque [7] | ΔL-color according to DIN 6167 [8] | Crack formation according to ASTM D 3395-86 [9] | Yellowness index after 90 minutes (ASTM D 1925-70) ([10]; Curing for 45 minutes in a gas oven at 180° C., NO2 content 20 ppm, without stabilizer 4.2) | Yellowness index after 90 minutes (ASTM D 1925-70) ([10]; Curing for 90 minutes in an electric oven at 180° C., without stabilizer 3.1)
CC(C)(C)c1cc2c(c(C(C)(C)C)c1)OC(=O)C2c1ccc(C(F)(F)F)cc1 (stereo not shown) [Compound (101), 5,7-di-tert-butyl-3-(4-trifluoromethyl-phenyl)-3H-benzofuran-2-one] | 95 | 127 to 128 °C | 0.253 | 3.4 | 85.8% | 81.3% | 16.4 | grade 1 | 8.5 | 19.6 | 22.5 | 4.7 | 27.5 min | – | – | – | –
CC(C)(C)c1cc2c(c(C(C)(C)C)c1)OC(=O)C2c1cc(C#N)cc(C#N)c1 (stereo not shown) [Compound (108)] | 95 | – | – | – | – | – | – | grade 1 | – | – | – | – | – | 96 | grade 0-1 | – | –
CCCCCCCCOC(=O)c1ccc(C2C(=O)Oc3c2cc(C(C)(C)C)cc3C(C)(C)C)cc1 (stereo not shown) [Compound (110), 5,7-di-tert-butyl-3-(4-n-octyloxycarbonylphenyl)-3H-benzofuran-2-one] | – | – | – | – | – | – | – | – | – | – | – | 4.7 | 27.5 min | – | – | 3.4 | 2.7
CC(C)Nc1ccc(Nc2ccccc2)cc1 [Vulkanox ® 4010, 4-isopropylamino-diphenylamine, reference compound] | 56 | – | – | – | – | – | – | grade 0 | – | – | – | – | – | 70 | grade 0 | – | –

— patent US6809208B2, “3-Arylbenzofuranones with electron-withdrawing substituents as stabilizers” (Ciba Specialty Chemicals Corporation, priority 2000, dated 2004)
